Results from article PMC5815522 (Bioorganic & medicinal chemistry, 2016).
Several values for one entry are separate records, joined by “and”; a condition that tells them apart may be missing. Identical values can stand only once. Like-named read-outs stand apart in the source and are kept apart here.

Assays:
HUT-78 cells [1] = assay: Uptake in presence and absence of verapamil by flow cytometry; format: cell-based, human; settings: 2 × 10^−7 M selenorhodamine, 1 × 10^−4 M VER, 1 h, mean ± SD
Colo-26 cells = settings: P-gp-expressing Colo-26 cells; cited from earlier work
CD3+ (CD25−) cells = format: cell-based, human
[2] = tested on: CD3+ cells of SEB-stimulated PBMCs; format: cell-based, human
HUT-78 cells [3] = format: cell-based, human
CD3+ (CD25+) cells = format: cell-based, human
[4] = in CH3OH; cited from earlier work
[5] = ± SD; cited from earlier work
[6] = in CH3OH, cited from earlier work; for Quantum yield for fluorescence ΦFL: excitation at 532 nm, ± SD
P-gp [7] = molecular target: T1, P-gp (Homo sapiens, UniProt P08183); settings: cited from earlier work; for PPassive: mean of PAB and PBA in the fully inhibited system; for PAB, transport in absorptive direction / PBA, transport in secretory direction / PBA/PAB: no inhibitor; for PAB, transport in absorptive direction (+inh) / PBA, transport in secretory direction (+inh): with inhibitor
[8] = CH3OH, ± SD; cited from earlier work
P-gp [9] = molecular target: T1, P-gp; assay: P-gp transport studies across MDCKII-MDR1 monolayers; settings: for PPassive: mean of PAB and PBA in the fully inhibited system; for PBA/PAB / PAB, transport in absorptive direction / PBA, transport in secretory direction: no inhibitor; for PAB, transport in absorptive direction / PBA, transport in secretory direction / PAB, transport in absorptive direction (+inh) / PBA, transport in secretory direction (+inh): 5 × 10^−6 M dye, 4.3 mg mL^−1 BSA, ± SD; for PAB, transport in absorptive direction (+inh) / PBA, transport in secretory direction (+inh): with 5 × 10^−6 M inhibitor 15
CD3+ (resting T cells) = format: cell-based, human
CD4+ (helper T cells) = format: cell-based, human
[10] = Steady-state fluorescence spectra and quantum yields in CH3OH; format: physicochemical; settings: for Quantum yield for fluorescence ΦFL: excitation at 532 nm, ± SD
[11] = format: physicochemical; settings: air-saturated CH3OH, ± SD
CD8+ (cytotoxic T cells) = format: cell-based, human
[12] = Electronic absorption spectra in MeOH; format: physicochemical; settings: in CH3OH
HUT-78 cells [13] = assay: Colocalization with organelle reporters by ImageStream imaging flow cytometry; format: cell-based, human; settings: ± SD

T1 sequence (P08183 whole entry): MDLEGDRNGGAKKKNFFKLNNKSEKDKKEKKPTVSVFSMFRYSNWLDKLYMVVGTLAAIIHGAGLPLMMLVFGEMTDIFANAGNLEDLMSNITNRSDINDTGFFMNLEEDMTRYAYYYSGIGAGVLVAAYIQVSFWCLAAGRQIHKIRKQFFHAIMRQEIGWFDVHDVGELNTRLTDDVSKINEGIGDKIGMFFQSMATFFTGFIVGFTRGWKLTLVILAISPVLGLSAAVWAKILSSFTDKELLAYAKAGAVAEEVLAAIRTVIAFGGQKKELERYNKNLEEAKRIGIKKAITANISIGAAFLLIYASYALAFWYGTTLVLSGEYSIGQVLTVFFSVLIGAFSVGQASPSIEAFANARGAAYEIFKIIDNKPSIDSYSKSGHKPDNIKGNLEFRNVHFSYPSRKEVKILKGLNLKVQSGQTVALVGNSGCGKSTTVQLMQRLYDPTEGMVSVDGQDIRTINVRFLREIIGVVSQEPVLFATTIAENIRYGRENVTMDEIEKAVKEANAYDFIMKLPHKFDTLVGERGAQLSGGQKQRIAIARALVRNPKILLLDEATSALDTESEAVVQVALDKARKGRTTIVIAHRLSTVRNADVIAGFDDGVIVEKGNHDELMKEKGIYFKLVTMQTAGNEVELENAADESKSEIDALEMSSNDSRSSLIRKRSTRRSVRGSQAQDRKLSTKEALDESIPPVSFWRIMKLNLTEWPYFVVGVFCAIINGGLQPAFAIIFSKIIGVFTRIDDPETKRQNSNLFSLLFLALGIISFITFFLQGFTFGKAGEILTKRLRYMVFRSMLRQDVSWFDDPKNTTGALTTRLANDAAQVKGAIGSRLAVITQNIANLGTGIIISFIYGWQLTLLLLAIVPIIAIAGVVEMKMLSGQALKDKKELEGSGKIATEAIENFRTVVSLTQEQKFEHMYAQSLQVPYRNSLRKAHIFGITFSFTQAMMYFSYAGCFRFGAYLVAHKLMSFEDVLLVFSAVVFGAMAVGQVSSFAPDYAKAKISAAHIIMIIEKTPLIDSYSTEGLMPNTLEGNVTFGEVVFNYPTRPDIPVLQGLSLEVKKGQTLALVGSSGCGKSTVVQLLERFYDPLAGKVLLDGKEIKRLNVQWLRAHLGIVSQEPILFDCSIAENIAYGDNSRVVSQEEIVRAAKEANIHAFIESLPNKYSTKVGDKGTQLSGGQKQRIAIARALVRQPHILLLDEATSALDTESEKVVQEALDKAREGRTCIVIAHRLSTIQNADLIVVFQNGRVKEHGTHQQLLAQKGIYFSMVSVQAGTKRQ

Compound	ratio of uptake +VER/−VER (HUT-78 cells [1])	ratio of uptake +VER/−VER (Colo-26 cells)	% survival CD3+ (CD25−) (CD3+ (CD25−) cells) [%]	% survival CD3+ [2] [%]	% survival HUT-78 (HUT-78 cells [3]) [%]	% survival CD3+ (CD25+) (CD3+ (CD25+) cells) [%]	Absorption maximum λmax [4] [nm]	Molar extinction coefficient ε [4] [M⁻¹ cm⁻¹]	n-octanol/water partition coefficient log P [5]	Quantum yield for fluorescence ΦFL [6]	Fluorescence emission maximum λFL [6] [nm]	Quantum yield for the generation of singlet oxygen Φ(1O2) [8]	PPassive (P-gp [9])	PBA/PAB (P-gp [9])	PAB, transport in absorptive direction (P-gp [9])	PBA, transport in secretory direction (P-gp [9])	PAB, transport in absorptive direction (+inh) (P-gp [9])	PBA, transport in secretory direction (+inh) (P-gp [9])	Fluorescence emission maximum λFL [10] [nm]	Quantum yield for fluorescence ΦFL [10]	further results
CN1CCC(C)(C)c2cc3c(-c4ccc(C(=S)N5CCCCC5)s4)c4ccc(=[N+](C)C)cc-4[se]c3cc21.[Cl-] [Compd 3]	1.27 ± 0.19	1.9	29.1 ± 5.2	21.0 ± 3.2	8.5 ± 1.2	9.2 ± 1.0	608	81100	1.61 ± 0.06	0.008 ± 0.001	634	0.44 ± 0.03	–	–	–	–	–	–	–	–	PPassive (P-gp [7]): ~2 ×10^−9 m s^−1; PAB, transport in absorptive direction (P-gp [7]): 1.9 ± 0.5 ×10^−9 m s^−1; PBA, transport in secretory direction (P-gp [7]): 29 ×10^−9 m s^−1 and 29 ± 3 ×10^−9 m s^−1; PBA/PAB (P-gp [7]): 15; PAB, transport in absorptive direction (+inh) (P-gp [7]): 1.7 ± 0.2 ×10^−9 m s^−1; PBA, transport in secretory direction (+inh) (P-gp [7]): 1.8 ± 0.1 ×10^−9 m s^−1
CN1CCC(C)(C)c2cc3c(-c4ccc(C(=O)N5CCCCC5)s4)c4ccc(=[N+](C)C)cc-4[se]c3cc21.[Cl-] [Compd 4]	1.33 ± 0.04	5.1	32.3 ± 6.0	26.6 ± 4.6	6.7 ± 1.2	17.4 ± 1.7	609	87300	2.23 ± 0.04	0.009 ± 0.001	634	0.48 ± 0.03	–	–	–	–	–	–	–	–	PPassive (P-gp [7]): ~6 ×10^−9 m s^−1; PAB, transport in absorptive direction (P-gp [7]): 0.9 ± 0.3 ×10^−9 m s^−1; PBA, transport in secretory direction (P-gp [7]): 164 ×10^−9 m s^−1 and 164 ± 4 ×10^−9 m s^−1; PBA/PAB (P-gp [7]): 182; PAB, transport in absorptive direction (+inh) (P-gp [7]): 1.0 ± 0.1 ×10^−9 m s^−1; PBA, transport in secretory direction (+inh) (P-gp [7]): 11.1 ± 0.2 ×10^−9 m s^−1
S=C(c1ccc(C2=c3cc4c5c(c3[Se]c3c2cc2c6c3CCCN6CCC2)CCC[N+]=5CCC4)s1)N1CCCCC1.[Cl-] [Compd 5, 9-(5-(piperidylcarbamothioyl)thiophen-2-yl)-2,3,6,7,12,13,16,17-octahydro-[1H,5H,11H,15H]-10-selenoxantheno[2,3,4-ij:5,6,7-i′j′]diquinolizin-18-ium chloride]	1.17 ± 0.13	2.9	17.1 ± 4.3	12.1 ± 2.6	2.0 ± 0.9	4.8 ± 1.0	626	99000	4.1 ± 0.2	0.010 ± 0.002	660	0.51 ± 0.03	<1 ×10^−9 m s^−1	57	0.3 ± 0.3 ×10^−9 m s^−1	18 ×10^−9 m s^−1	0.51 ± 0.3 ×10^−9 m s^−1	0.57 ± 0.1 ×10^−9 m s^−1	–	–	–
O=C(c1ccc(C2=c3cc4c5c(c3[Se]c3c2cc2c6c3CCCN6CCC2)CCC[N+]=5CCC4)s1)N1CCCCC1.[Cl-] [Compd 6, 9-(5-(piperidylcarbamoyl)thiophen-2-yl)-2,3,6,7,12,13,16,17-octa-hydro[1H,5H,11H,15H]-10-selenoxantheno-[2,3,4-ij:5,6,7-i′j′]diquinolizin-18-ium chloride]	1.13 ± 0.08	7.6	–	65	9.3 ± 2.7	37.4 ± 3.2	626	135000	3.71 ± 0.08	0.012 ± 0.001	660	0.64 ± 0.03	~2 ×10^−9 m s^−1	37	2.1 ± 0.1 ×10^−9 m s^−1	78 ×10^−9 m s^−1	0.24 ± 0.1 ×10^−9 m s^−1	4.8 ± 0.1 ×10^−9 m s^−1	–	–	% of HUT-78 cells to which the photosensitizer was phototoxic (HUT-78 cells [3]): > 90% and 91%; % survival of the CD3+, CD4+, and CD8+ populations (CD3+ (resting T cells)): 62–78%
C[N+]1=c2cc3c(cc2C(C)(C)CC1)=C(c1ccc(C(=S)N2CCCCC2)s1)c1cc2c4c(c1[Se]3)CCCN4CCC2.[Cl-] [Compd 7]	–	–	–	5.7 ± 2.6	5.1 ± 0.9	2.6 ± 0.9	–	–	–	–	–	–	<1 ×10^−9 m s^−1	20	0.44 ± 0.1 ×10^−9 m s^−1	8.8 ×10^−9 m s^−1 and 8.8 ± 0.3 ×10^−9 m s^−1	0.46 ± 0.1 ×10^−9 m s^−1	0.32 ± 0.2 ×10^−9 m s^−1	650	0.008 ± 0.001	% survival CD4+ (CD4+ (helper T cells)): 0 ± 0%; Quantum yield for the generation of singlet oxygen Φ(1O2) [11]: 0.54 ± 0.03; % survival CD8+ (CD8+ (cytotoxic T cells)): 0 ± 0%; Absorption maximum λmax [12]: 620 nm; Molar extinction coefficient ε [12]: 92000 M⁻¹ cm⁻¹
C[N+]1=c2cc3c(cc2C(C)(C)CC1)=C(c1ccc(C(=O)N2CCCCC2)s1)c1cc2c4c(c1[Se]3)CCCN4CCC2.[Cl-] [Compd 8]	–	–	–	10.3 ± 1.4	6.0 ± 0.2	5.0 ± 0.9	–	–	–	–	–	–	~1 ×10^−9 m s^−1	48	1.4 ± 0.8 ×10^−9 m s^−1	66 ×10^−9 m s^−1 and 66 ± 10 ×10^−9 m s^−1	0.18 ± 0.1 ×10^−9 m s^−1	2.8 ± 0.2 ×10^−9 m s^−1	650	0.009 ± 0.001	Quantum yield for the generation of singlet oxygen Φ(1O2) [11]: 0.64 ± 0.03; Absorption maximum λmax [12]: 620 nm; Molar extinction coefficient ε [12]: 110000 M⁻¹ cm⁻¹
CN1CCC(C)(C)c2cc3c(cc21)[Se]c1cc2c(cc1=C3c1ccc(C(=S)N3CCCCC3)s1)C(C)(C)CC[N+]=2C.[Cl-] [Compd 9]	–	–	–	9.2 ± 2.2	8.1 ± 4.1	7.0 ± 0.7	–	–	–	–	–	–	<1 ×10^−9 m s^−1	4	–	6.3 ×10^−9 m s^−1 and 6.3 ± 1.2 ×10^−9 m s^−1	0.51 ± 0.1 ×10^−9 m s^−1	0.13 ± 0.1 ×10^−9 m s^−1	645	0.006 ± 0.001	% survival CD4+ (CD4+ (helper T cells)): 0 ± 0%; Quantum yield for the generation of singlet oxygen Φ(1O2) [11]: 0.64 ± 0.03; % survival CD8+ (CD8+ (cytotoxic T cells)): 0 ± 0%; Absorption maximum λmax [12]: 614 nm; Molar extinction coefficient ε [12]: 93000 M⁻¹ cm⁻¹
CN1CCC(C)(C)c2cc3c(cc21)[Se]c1cc2c(cc1=C3c1ccc(C(=O)N3CCCCC3)s1)C(C)(C)CC[N+]=2C.[Cl-] [Compd 10]	–	–	29.8 ± 5.6	22.2 ± 2.9	5.4 ± 0.8	12.5 ± 0.4	–	–	–	–	–	–	~2 ×10^−9 m s^−1	36	1.8 ± 1 ×10^−9 m s^−1	65 ×10^−9 m s^−1 and 65 ± 6 ×10^−9 m s^−1	0.51 ± 0.1 ×10^−9 m s^−1	4.0 ± 0.7 ×10^−9 m s^−1	645	0.007 ± 0.001	Quantum yield for the generation of singlet oxygen Φ(1O2) [11]: 0.95 ± 0.03; Absorption maximum λmax [12]: 614 nm; Molar extinction coefficient ε [12]: 105000 M⁻¹ cm⁻¹
MitoTracker Red [Compd 17]	–	–	–	–	–	–	–	–	–	–	–	–	–	–	–	–	–	–	–	–	mean bright detail similarity score with 18 (LYS) (HUT-78 cells [13]; lysosome-specific reporter LysoTracker): 0.6 ± 0.4; mean bright detail similarity score with 16 (MTG) (HUT-78 cells [13]; mitochondrial reporter MitoTracker Green): 3.1 ± 0.7
